# Laboratory results: patent publication US20250296953A1, “3,4-THIAZOLO-STEROIDS AND METHODS OF MAKING AND USING THE SAME” (Arkansas State University - Jonesboro, priority 2018, published 2025)
# Like-named read-outs stand apart in the source and are kept apart here.
# Experiments:
# NCI-H522 (NSCLC) = test: NCI 60 one dose screen; assay type: cell-based, human; conditions: Non-small Cell Lung Cancer
# [1] = tested on: 60 different human tumor cell lines; conditions: five dose
# SR = test: NCI 60 five dose screen
# RPMI-8226 = test: NCI 60 five dose screen
# glioblastoma (SF-295) = test: NCI 60 five dose screen
# [2] = tested on: 60 different human tumor cell lines; test: NCI Development Therapeutics Program 60 cell line screen, one dose; assay type: cell-based
# SF-539 = test: NCI 60 one dose screen; assay type: cell-based, human; conditions: one dose; CNS Cancer; SF-539
# HCT-15 (Colon Cancer) = test: NCI 60 one dose screen; assay type: cell-based, human
compound,measurement,setting,value
"C[C@]12CC[C@H]3[C@@H](CC=C4c5sc(-c6ccc(O)cc6)nc5CC[C@@]43C)[C@@H]1CC[C@@H]2O [III.5, (1S,2R,13R,14S,17S,18S)-7-(4-hydroxyphenyl)-2,18-dimethyl-8-thia-6-azapentacyclo[11.7.0.02,10.05,9.014,18]icosa-5(9),6,10-trien-17-ol]",Growth Percent,NCI-H522 (NSCLC),41.21%
same,TGI,[1]; 786-0 (Renal Cancer),2.39E−6
same,TGI,[1]; A498 (Renal Cancer),2.13E−5
same,TGI,[1]; A549/ATCC (Non-small Cell Lung Cancer),>1.00E−4
same,TGI,[1]; ACHN (Renal Cancer),>1.00E−4
same,TGI,[1]; BT-549 (Breast Cancer),1.94E−5
same,TGI,[1]; CAKI-1 (Renal Cancer),>1.00E−4
same,TGI,[1]; CCRF-CEM (Leukemia),4.72E−5
same,TGI,[1]; COLO 205 (Colon Cancer),>1.00E−4
same,TGI,[1]; DU-145 (Prostate Cancer),>1.00E−4
same,TGI,[1]; EKVX (Non-small Cell Lung Cancer),>1.00E−4
same,TGI,[1]; HCC-2998 (Colon Cancer),>1.00E−4
same,TGI,[1]; HCT-15 (Colon Cancer),2.07E−5
same,TGI,[1]; HCT-116 (Colon Cancer),2.74E−5
same,TGI,[1]; HL-60(TB) (Leukemia),>1.00E−4
same,TGI,[1]; HOP-62 (Non-small Cell Lung Cancer),5.05E−5
same,TGI,[1]; HS 578T (Breast Cancer),6.01E−5
same,TGI,[1]; HT29 (Colon Cancer),2.04E−5
same,TGI,[1]; IGROV1 (Ovarian Cancer),>1.00E−4
same,TGI,[1]; K-562 (Leukemia),>1.00E−4
same,TGI,[1]; KM12 (Colon Cancer),>1.00E−4
same,TGI,[1]; LOX IMVI (Melanoma),1.46E−5
same,TGI,[1]; M14 (Melanoma),2.93E−5
same,TGI,[1]; MALME-3M (Melanoma),>1.00E−4
same,TGI,[1]; MCF7 (Breast Cancer),2.15E−5
same,TGI,[1]; MDA-MB-231/ATCC (Breast Cancer),3.29E−5
same,TGI,[1]; MDA-MB-435 (Melanoma),>1.00E−4
same,TGI,[1]; MDA-MB-468 (Breast Cancer),4.16E−5
same,TGI,[1]; MOLT-4 (Leukemia),>1.00E−4
same,TGI,[1]; NCI-H23 (Non-small Cell Lung Cancer),>1.00E−4
same,TGI,[1]; NCI-H226 (Non-small Cell Lung Cancer),>1.00E−4
same,TGI,[1]; NCI-H322M (Non-small Cell Lung Cancer),>1.00E−4
same,TGI,[1]; NCI-H460 (Non-small Cell Lung Cancer),>1.00E−4
same,TGI,[1]; NCI-H522 (Non-small Cell Lung Cancer),>1.00E−4
same,TGI,[1]; NCI/ADR-RES (Ovarian Cancer),>1.00E−4
same,TGI,[1]; OVCAR-3 (Ovarian Cancer),8.37E−5
same,TGI,[1]; OVCAR-4 (Ovarian Cancer),>1.00E−4
same,TGI,[1]; OVCAR-5 (Ovarian Cancer),>1.00E−4
same,TGI,[1]; OVCAR-8 (Ovarian Cancer),>1.00E−4
same,TGI,[1]; RXF 393 (Renal Cancer),1.31E−6
same,TGI,[1]; SF-268 (CNS Cancer),>1.00E−4
same,TGI,[1]; SK-MEL-2 (Melanoma),6.94E−5
same,TGI,[1]; SK-MEL-5 (Melanoma),1.31E−5
same,TGI,[1]; SK-MEL-28 (Melanoma),6.60E−5
same,TGI,[1]; SK-OV-3 (Ovarian Cancer),>1.00E−4
same,TGI,[1]; SN12C (Renal Cancer),>1.00E−4
same,TGI,[1]; SNB-19 (CNS Cancer),>1.00E−4
same,TGI,[1]; SNB-75 (CNS Cancer),2.57E−5
same,TGI,[1]; SW-620 (Colon Cancer),>1.00E−4
same,TGI,[1]; T-47D (Breast Cancer),>1.00E−4
same,TGI,[1]; TK-10 (Renal Cancer),>1.00E−4
same,TGI,[1]; U251 (CNS Cancer),6.73E−5
same,TGI,[1]; UACC-62 (Melanoma),7.64E−6
same,TGI,[1]; UACC-257 (Melanoma),>1.00E−4
same,TGI,[1]; UO-31 (Renal Cancer),2.04E−5
same,GI50,"SR; Homo sapiens, SR",1370 nM
same,CC50,"SR; Homo sapiens, SR, read-out: LC50",> 100 µM
same,TGI,"SR; SR (Leukemia), five dose",3.38E−5
same,CC50,"RPMI-8226; Homo sapiens, RPMI-8226, read-out: LC50",> 100 µM
same,TGI,"RPMI-8226; RPMI-8226 (Leukemia), five dose",2.50E−6
same,GI50,"glioblastoma (SF-295); Homo sapiens, SF-295",413 nM
same,CC50,"glioblastoma (SF-295); Homo sapiens, SF-295, read-out: LC50",8.2 µM
same,TGI,"glioblastoma (SF-295); SF-295 (CNS Cancer), five dose",2.03E−6
same,Growth Percent,"[2]; Breast Cancer, BT-549",59.26%
same,Growth Percent,"[2]; Breast Cancer, HS 578T",4.16%
same,Growth Percent,"[2]; Breast Cancer, MCF7",42.59%
same,Growth Percent,"[2]; Breast Cancer, MDA-MB-231/ATCC",56.24%
same,Growth Percent,"[2]; Breast Cancer, MDA-MB-468",81.03%
same,Growth Percent,"[2]; Breast Cancer, T-47D",67.74%
same,Growth Percent,"[2]; CNS Cancer, SF-268",48.55%
same,Growth Percent,"[2]; CNS Cancer, SNB-19",71.05%
same,Growth Percent,"[2]; CNS Cancer, SNB-75",26.42%
same,Growth Percent,"[2]; CNS Cancer, U251",20.08%
same,Growth Percent,"[2]; Colon Cancer, COLO 205",77.66%
same,Growth Percent,"[2]; Colon Cancer, HCC-2998",95.33%
same,Growth Percent,"[2]; Colon Cancer, HCT-116",43.80%
same,Growth Percent,"[2]; Colon Cancer, HT29",19.90%
same,Growth Percent,"[2]; Colon Cancer, KM12",60.79%
same,Growth Percent,"[2]; Colon Cancer, SW-620",71.71%
same,Growth Percent,"[2]; Leukemia, CCRF-CEM",13.10%
same,Growth Percent,"[2]; Leukemia, HL-60(TB)",22.65%
same,Growth Percent,"[2]; Leukemia, K-562",13.87%
same,Growth Percent,"[2]; Leukemia, MOLT-4",−23.23%
same,Growth Percent,"[2]; Leukemia, RPMI-8226",−36.92%
same,Growth Percent,"[2]; Leukemia, SR",5.95%
same,Growth Percent,"[2]; Melanoma, LOX IMVI",25.37%
same,Growth Percent,"[2]; Melanoma, M14",60.54%
same,Growth Percent,"[2]; Melanoma, MALME-3M",72.42%
same,Growth Percent,"[2]; Melanoma, MDA-MB-435",91.96%
same,Growth Percent,"[2]; Melanoma, SK-MEL-2",44.94%
same,Growth Percent,"[2]; Melanoma, SK-MEL-5",71.98%
same,Growth Percent,"[2]; Melanoma, SK-MEL-28",53.31%
same,Growth Percent,"[2]; Melanoma, UACC-62",28.69%
same,Growth Percent,"[2]; Melanoma, UACC-257",66.19%
same,Growth Percent,"[2]; Non-small Cell Lung Cancer, A549/ATCC",52.15%
same,Growth Percent,"[2]; Non-small Cell Lung Cancer, EKVX",63.56%
same,Growth Percent,"[2]; Non-small Cell Lung Cancer, HOP-62",46.75%
same,Growth Percent,"[2]; Non-small Cell Lung Cancer, NCI-H23",74.72%
same,Growth Percent,"[2]; Non-small Cell Lung Cancer, NCI-H226",109.87%
same,Growth Percent,"[2]; Non-small Cell Lung Cancer, NCI-H322M",92.82%
same,Growth Percent,"[2]; Non-small Cell Lung Cancer, NCI-H460",41.91%
same,Growth Percent,"[2]; Ovarian Cancer, IGROV1",80.66%
same,Growth Percent,"[2]; Ovarian Cancer, NCI/ADR-RES",76.79%
same,Growth Percent,"[2]; Ovarian Cancer, OVCAR-3",38.63%
same,Growth Percent,"[2]; Ovarian Cancer, OVCAR-4",81.75%
same,Growth Percent,"[2]; Ovarian Cancer, OVCAR-5",106.38%
same,Growth Percent,"[2]; Ovarian Cancer, OVCAR-8",74.18%
same,Growth Percent,"[2]; Ovarian Cancer, SK-OV-3",38.63%
same,Growth Percent,"[2]; Prostate Cancer, DU-145",63.77%
same,Growth Percent,"[2]; Prostate Cancer, PC-3",49.49%
same,Growth Percent,"[2]; Renal Cancer, 786-0",8.35%
same,Growth Percent,"[2]; Renal Cancer, A498",49.45%
same,Growth Percent,"[2]; Renal Cancer, ACHN",46.04%
same,Growth Percent,"[2]; Renal Cancer, CAKI-1",61.32%
same,Growth Percent,"[2]; Renal Cancer, RXF 393",−46.32%
same,Growth Percent,"[2]; Renal Cancer, SN12C",96.68%
same,Growth Percent,"[2]; Renal Cancer, TK-10",89.27%
same,Growth Percent,"[2]; Renal Cancer, UO-31",9.33%
same,Growth Percent,SF-539,8.02%
same,Growth Percent,HCT-15 (Colon Cancer),29.48%
